Values of other authors as cited in PMC10401071 (Cancer Discovery, 2023).

System: WDLPS and DDLPS
Settings: patients with WDLPS and DDLPS; cited from earlier work

## COc1cccc2c1C(=O)c1c(O)c3c(c(O)c1C2=O)C[C@@](O)(C(=O)CO)C[C@@H]3O[C@H]1C[C@H](N)[C@H](O)[C@H](C)O1 [doxorubicin]
  overall survival: ~9 months
